These are literature values, as cited in paper PMC2694617 (Journal of medicinal chemistry, 2009).

Where two headings read alike, the source gives them in different places.

The conditions of data set [1]: ref [6],[11],[18],[19].
The subject of data set [2] is rat model of inflammatory pain. The following applies: in vivo.
Data set [3] concerns the target T1, human NTS1 (Homo sapiens, UniProt P30989).
In data set [4] the target is T1, human NTS1. This is another data set of the same source.

T1 sequence (P30989 whole entry): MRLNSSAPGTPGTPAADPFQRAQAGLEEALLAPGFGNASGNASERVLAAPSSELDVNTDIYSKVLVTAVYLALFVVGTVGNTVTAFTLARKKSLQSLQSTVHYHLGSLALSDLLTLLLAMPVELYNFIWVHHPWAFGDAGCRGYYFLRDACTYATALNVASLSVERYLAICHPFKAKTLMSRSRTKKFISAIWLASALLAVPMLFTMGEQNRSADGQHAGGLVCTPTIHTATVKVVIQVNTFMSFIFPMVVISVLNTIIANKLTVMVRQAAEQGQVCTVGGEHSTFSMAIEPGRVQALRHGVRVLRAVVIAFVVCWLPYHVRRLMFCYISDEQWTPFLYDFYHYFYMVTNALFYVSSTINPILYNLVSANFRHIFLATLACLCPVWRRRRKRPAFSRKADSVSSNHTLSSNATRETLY

As for “(N-methyl-Arg)-Lys-Pro-(L-neo-Trp)-(tert-Leu)-Leu [NT69L]”, the BBB penetration result in data set [1] is reported as “penetrates the BBB”. Further, the analgesic activity result (ref [6],[11],[18],[19]) is recorded as “potent analgesic”. Regarding “NT: endogenous neuropeptide; full-length, unmodified NT”, the analgesic activity entry (mediated spinally and/or supraspinally by NT receptors, ref [5],[6]) is given as “potent analgesic activity”. For contulakin-G, the potency result in data set [2] was “picomolar potency”. In the case of “cyclo(KKPYILKKPYIL) [JMV2012] [listing 1 of 2 here]”, the analgesic activity result (previously described, ref [12]) is “analgesic”. A word on the Kd: it is the concentration at which binding is half-saturated. As to “cyclo(KKPYILKKPYIL) [JMV2012] [listing 2 of 2 here]”, the Kd in the data set with human NTS1 [3] (ref [12]) is 150 nM.

Take “(N-methyl-Arg)-Lys-Pro-(L-neo-Trp)-(tert-Leu)-Leu (RKPWLL) [NT69L]”: the dissociation constant (Kd) with human NTS1 [3] (ref [11]) is 1.55 nM. The Ki is a measure of affinity in units of concentration, obtained from inhibition or displacement. For neurotensin (from UniProt P30990), in the data set with human NTS1 [4], the Ki was 0.5 nM.
